What was measured:
[1] = Highest frequency of moderate liver toxicity observed during clinical trials, expressed as a percentage. [column '% BIOL' in source]; details: human
[2] = Highest frequency of acute liver toxicity observed during clinical trials, expressed as a percentage. [column '% AIGUE' in source]; details: human
[3] = human, serum
[4] = human, serum; remark: listed apart in the source
[5] = human
[6] = human; remark: listed apart in the source
[7] = human; remark: listed apart in the source
[8] = human, serum, 4383 h
[9] = human; remark: listed apart in the source
[10] = human; remark: listed apart in the source
[11] = human; remark: listed apart in the source
[12] = human; remark: listed apart in the source
[13] = human; remark: listed apart in the source
[14] = human; remark: listed apart in the source
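For Hepatotoxicity (association with vascular disease) in this document: count of indexed literature references reporting vascular liver injury in humans, e.g. peliosis hepatitis, hepatic veno-occlusive disease or Budd-Chiari syndrome.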
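For Hepatotoxicity (benign tumour) in this document: value is a count of indexed literature references citing a benign tumour confirmed by histopathology.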
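For Hepatotoxicity (choleostasis) in this document: human cholestatic liver injury, shown by histopathology or by peak ALT or AST elevation over alkaline phosphatase ratio below 2, value counts indexed literature reports.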
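For Hepatotoxicity (chronic liver disease) in this document: chronic liver injury confirmed by histopathology or persistently raised serum aminotransferase activity beyond 6 months, value given as the count of indexed literature references.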
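For Hepatotoxicity (cirrhosis) in this document: value is a count of indexed literature references reporting cirrhosis confirmed by histopathology.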
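For Hepatotoxicity (cytolytic) in this document: human cytolytic liver injury, shown by histopathology or by a ratio above 5 of peak ALT or AST elevation to alkaline phosphatase elevation, value counts indexed references.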
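For Hepatotoxicity (granulomatous hepatitis) in this document: value is a count of indexed literature references reporting granulomatous liver disease confirmed by histopathology.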
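For Hepatotoxicity (malignant tumour) in this document: malignant tumour confirmed by histopathology, value gives the count of indexed literature references reporting it.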
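For Hepatotoxicity (severe hepatitis) in this document: human clinical data: severe hepatitis, meaning potentially life-threatening liver failure or clinically observed cases, the value counts how many indexed literature references report it.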
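For Hepatotoxicity (steatosis) in this document: steatosis confirmed by histopathology, value is the count of indexed references.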

CN(C)CCN(Cc1ccccc1)c1ccccn1 [TRIPELENNAMINE]
Hepatotoxicity (moderate) [1]: 0% | Hepatotoxicity (acute) [2]: 0% | Hepatotoxicity (moderate) [3]: 0 | Hepatotoxicity (acute) [4]: 1 | Hepatotoxicity (cytolytic) [5]: 1 | Hepatotoxicity (choleostasis) [6]: 1 | Hepatotoxicity (severe hepatitis) [7]: 0 | Hepatotoxicity (chronic liver disease) [8]: 0 | Hepatotoxicity (cirrhosis) [9]: 0 | Hepatotoxicity (granulomatous hepatitis) [10]: 0 | Hepatotoxicity (association with vascular disease) [11]: 0 | Hepatotoxicity (steatosis) [12]: 0 | Hepatotoxicity (malignant tumour) [13]: 0 | Hepatotoxicity (benign tumour) [14]: 0

CO/N=C(\C(=O)N[C@@H]1C(=O)N2C(C(=O)O)=C(C)CS[C@H]12)c1csc(N)n1
Hepatotoxicity (moderate) [1]: 23.1% | Hepatotoxicity (acute) [2]: 0% | Hepatotoxicity (moderate) [3]: 30 | Hepatotoxicity (acute) [4]: 0 | Hepatotoxicity (cytolytic) [5]: 0 | Hepatotoxicity (choleostasis) [6]: 0 | Hepatotoxicity (severe hepatitis) [7]: 0 | Hepatotoxicity (chronic liver disease) [8]: 0 | Hepatotoxicity (cirrhosis) [9]: 0 | Hepatotoxicity (granulomatous hepatitis) [10]: 0 | Hepatotoxicity (association with vascular disease) [11]: 0 | Hepatotoxicity (steatosis) [12]: 0 | Hepatotoxicity (malignant tumour) [13]: 0 | Hepatotoxicity (benign tumour) [14]: 0

NS(=O)(=O)c1cc(C2(O)NC(=O)c3ccccc32)ccc1Cl (stereo not drawn) [CHLORTHALIDONE]
Hepatotoxicity (moderate) [1]: 0% | Hepatotoxicity (acute) [2]: 0% | Hepatotoxicity (moderate) [3]: 0 | Hepatotoxicity (acute) [4]: 2 | Hepatotoxicity (cytolytic) [5]: 0 | Hepatotoxicity (choleostasis) [6]: 0 | Hepatotoxicity (severe hepatitis) [7]: 0 | Hepatotoxicity (chronic liver disease) [8]: 0 | Hepatotoxicity (cirrhosis) [9]: 0 | Hepatotoxicity (granulomatous hepatitis) [10]: 0 | Hepatotoxicity (association with vascular disease) [11]: 0 | Hepatotoxicity (steatosis) [12]: 0 | Hepatotoxicity (malignant tumour) [13]: 0 | Hepatotoxicity (benign tumour) [14]: 0

CC(/C=N/NC(=N)N)=N\NC(=N)N [MITOGUAZONE]
Hepatotoxicity (moderate) [1]: 18.2% | Hepatotoxicity (acute) [2]: 0% | Hepatotoxicity (moderate) [3]: 1 | Hepatotoxicity (acute) [4]: 0 | Hepatotoxicity (cytolytic) [5]: 0 | Hepatotoxicity (choleostasis) [6]: 0 | Hepatotoxicity (severe hepatitis) [7]: 0 | Hepatotoxicity (chronic liver disease) [8]: 0 | Hepatotoxicity (cirrhosis) [9]: 0 | Hepatotoxicity (granulomatous hepatitis) [10]: 0 | Hepatotoxicity (association with vascular disease) [11]: 0 | Hepatotoxicity (steatosis) [12]: 0 | Hepatotoxicity (malignant tumour) [13]: 0 | Hepatotoxicity (benign tumour) [14]: 0

OC(CCN1CCCCC1)(c1ccccc1)C1CCCCC1 (stereo not drawn) [TRIHEXYPHENIDYL]
Hepatotoxicity (moderate) ([1]; Liver): 0% | Hepatotoxicity (acute) ([2]; Liver): 0% | Hepatotoxicity (moderate) [3]: 0 | Hepatotoxicity (acute) [4]: 1 | Hepatotoxicity (cytolytic) ([5]; Liver): 1 | Hepatotoxicity (choleostasis) ([6]; Liver): 0 | Hepatotoxicity (severe hepatitis) ([7]; Liver): 1 | Hepatotoxicity (chronic liver disease) [8]: 0 | Hepatotoxicity (cirrhosis) [9]: 0 | Hepatotoxicity (granulomatous hepatitis) ([10]; Liver): 0 | Hepatotoxicity (association with vascular disease) [11]: 0 | Hepatotoxicity (steatosis) [12]: 0 | Hepatotoxicity (malignant tumour) [13]: 0 | Hepatotoxicity (benign tumour) [14]: 0

CO[C@@]1(NC(=O)CSCC#N)C(=O)N2C(C(=O)O)=C(CSc3nnnn3C)CS[C@@H]21 [CEFMETAZOLE]
Hepatotoxicity (moderate) [1]: 9.1% | Hepatotoxicity (acute) [2]: 0% | Hepatotoxicity (moderate) [3]: 5 | Hepatotoxicity (acute) [4]: 0 | Hepatotoxicity (cytolytic) [5]: 0 | Hepatotoxicity (choleostasis) [6]: 0 | Hepatotoxicity (severe hepatitis) [7]: 0 | Hepatotoxicity (chronic liver disease) [8]: 0 | Hepatotoxicity (cirrhosis) [9]: 0 | Hepatotoxicity (granulomatous hepatitis) [10]: 0 | Hepatotoxicity (association with vascular disease) [11]: 0 | Hepatotoxicity (steatosis) [12]: 0 | Hepatotoxicity (malignant tumour) [13]: 0 | Hepatotoxicity (benign tumour) [14]: 0

CC(C)(C)C(=O)OCOC(=O)[C@@H]1N2C(=O)[C@@H](/N=C/N3CCCCCC3)[C@H]2SC1(C)C [AMDINOCILLIN PIVOXIL]
Hepatotoxicity (moderate) [1]: 17.2% | Hepatotoxicity (acute) [2]: 0% | Hepatotoxicity (moderate) [3]: 1 | Hepatotoxicity (acute) [4]: 0 | Hepatotoxicity (cytolytic) [5]: 0 | Hepatotoxicity (choleostasis) [6]: 0 | Hepatotoxicity (severe hepatitis) [7]: 0 | Hepatotoxicity (chronic liver disease) [8]: 0 | Hepatotoxicity (cirrhosis) [9]: 0 | Hepatotoxicity (granulomatous hepatitis) [10]: 0 | Hepatotoxicity (association with vascular disease) [11]: 0 | Hepatotoxicity (steatosis) [12]: 0 | Hepatotoxicity (malignant tumour) [13]: 0 | Hepatotoxicity (benign tumour) [14]: 0

CC(O)(P(=O)(O)O)P(=O)(O)O [ETIDRONIC ACID]
Hepatotoxicity (moderate) [1]: 8.7% | Hepatotoxicity (acute) [2]: 0% | Hepatotoxicity (moderate) [3]: 1 | Hepatotoxicity (acute) [4]: 0 | Hepatotoxicity (cytolytic) [5]: 0 | Hepatotoxicity (choleostasis) [6]: 0 | Hepatotoxicity (severe hepatitis) [7]: 0 | Hepatotoxicity (chronic liver disease) [8]: 0 | Hepatotoxicity (cirrhosis) [9]: 0 | Hepatotoxicity (granulomatous hepatitis) [10]: 0 | Hepatotoxicity (association with vascular disease) [11]: 0 | Hepatotoxicity (steatosis) [12]: 0 | Hepatotoxicity (malignant tumour) [13]: 0 | Hepatotoxicity (benign tumour) [14]: 0

CC(C)C[C@H](NC(=O)[C@@H](COC(C)(C)C)NC(=O)[C@H](Cc1ccc(O)cc1)NC(=O)[C@H](CO)NC(=O)[C@H](Cc1c[nH]c2ccccc12)NC(=O)[C@H](Cc1cnc[nH]1)NC(=O)[C@@H]1CCC(=O)N1)C(=O)N[C@@H](CCCNC(=N)N)C(=O)N1CCC[C@H]1C(=O)NNC(N)=O [GOSERELIN]
Hepatotoxicity (moderate) [1]: 7.8% | Hepatotoxicity (acute) [2]: 0% | Hepatotoxicity (moderate) [3]: 5 | Hepatotoxicity (acute) [4]: 0 | Hepatotoxicity (cytolytic) [5]: 0 | Hepatotoxicity (choleostasis) [6]: 0 | Hepatotoxicity (severe hepatitis) [7]: 1 | Hepatotoxicity (chronic liver disease) [8]: 0 | Hepatotoxicity (cirrhosis) [9]: 0 | Hepatotoxicity (granulomatous hepatitis) [10]: 0 | Hepatotoxicity (association with vascular disease) [11]: 0 | Hepatotoxicity (steatosis) [12]: 0 | Hepatotoxicity (malignant tumour) [13]: 0 | Hepatotoxicity (benign tumour) [14]: 0

O=C(O)c1nn(Cc2ccc(Cl)cc2Cl)c2ccccc12 [LONIDAMINE]
Hepatotoxicity (moderate) [1]: 6.4% | Hepatotoxicity (acute) [2]: 0% | Hepatotoxicity (moderate) [3]: 4 | Hepatotoxicity (acute) [4]: 0 | Hepatotoxicity (cytolytic) [5]: 0 | Hepatotoxicity (choleostasis) [6]: 0 | Hepatotoxicity (severe hepatitis) [7]: 0 | Hepatotoxicity (chronic liver disease) [8]: 0 | Hepatotoxicity (cirrhosis) [9]: 0 | Hepatotoxicity (granulomatous hepatitis) [10]: 0 | Hepatotoxicity (association with vascular disease) [11]: 0 | Hepatotoxicity (steatosis) [12]: 0 | Hepatotoxicity (malignant tumour) [13]: 0 | Hepatotoxicity (benign tumour) [14]: 0

C[C@@H]1C[C@H](C)CN(S(=O)(=O)c2ccc(Cl)c(C(=O)O)c2)C1 [TIBRIC ACID]
Hepatotoxicity (moderate) [1]: 0% | Hepatotoxicity (acute) [2]: 0% | Hepatotoxicity (moderate) [3]: 1 | Hepatotoxicity (acute) [4]: 0 | Hepatotoxicity (cytolytic) [5]: 0 | Hepatotoxicity (choleostasis) [6]: 0 | Hepatotoxicity (severe hepatitis) [7]: 0 | Hepatotoxicity (chronic liver disease) [8]: 0 | Hepatotoxicity (cirrhosis) [9]: 0 | Hepatotoxicity (granulomatous hepatitis) [10]: 0 | Hepatotoxicity (association with vascular disease) [11]: 0 | Hepatotoxicity (steatosis) [12]: 0 | Hepatotoxicity (malignant tumour) [13]: 0 | Hepatotoxicity (benign tumour) [14]: 0

CCC1=C(C[C@H]2NCCc3cc(OC)c(OC)cc32)C[C@H]2c3cc(OC)c(OC)cc3CCN2C1 [DEHYDROEMETINE]
Hepatotoxicity (moderate) [1]: 0% | Hepatotoxicity (acute) [2]: 0% | Hepatotoxicity (moderate) [3]: 1 | Hepatotoxicity (acute) [4]: 0 | Hepatotoxicity (cytolytic) [5]: 0 | Hepatotoxicity (choleostasis) [6]: 0 | Hepatotoxicity (severe hepatitis) [7]: 0 | Hepatotoxicity (chronic liver disease) [8]: 0 | Hepatotoxicity (cirrhosis) [9]: 0 | Hepatotoxicity (granulomatous hepatitis) [10]: 0 | Hepatotoxicity (association with vascular disease) [11]: 0 | Hepatotoxicity (steatosis) [12]: 0 | Hepatotoxicity (malignant tumour) [13]: 0 | Hepatotoxicity (benign tumour) [14]: 0
